Results taken from patent US4024224A, “14-Aminodaunomycins, their preparation and use” (priority 1974, dated 1977).
Converted amounts (≈) assume the structure as drawn. Read-outs that look alike come from different tables or passages of the source.

How the values were obtained:
[1] = tested on: Moloney Sarcoma Virus (MSV); test: Inhibition of MSV-M foci formation in mouse embryo fibroblasts; assay type: cell-based; conditions: Fibroblast, 120 h; for IC50: read-out: MSV-M foci ID 50 (Inhibiting Dose 50%); for activity at 0.1 µg/mL: dose 0.1 μg/ml; for activity at 0.4 µg/mL: dose 0.4 μg/ml
Description: (§1) Mouse embryo fibroblasts (MEF) were plated on 35 mm. Falcon plastic dishes and infected 24 hours later with Moloney Sarcoma Virus (MSV) in the presence of DEAE-dextran (25 μg./ml.). The samples were then treated for 3 days with different concentrations of the compounds of the invention. The number of foci of transformed cells was microscopically determined 5 days after the infection. Uninfected MEF were similarly treated and at the end of the experiment, the cells were counted in an haemocytometer. In all the experiments, the cells were incubated in a 5% CO2 incubator at 37° C.
(§2) For use in these tests the compounds were dissolved in distilled water or in 5% ethyl alcohol in distilled water and then diluted in culture medium.
The results of these tests are reported in Table I in terms of ID50 values (Inhibiting Dose 50%), calculated on dose-effects lines.

[2] = Proliferation of uninfected mouse embryo fibroblasts (MEF); assay type: cell-based; conditions: mouse, mouse embryo fibroblasts
Description: as §1, §2

Mouse Embryo Fibroblasts = test: as above; assay type: cell-based; conditions: Mus musculus, Fibroblast, 72 h, read-out: MEF No. of cells; for activity at 0.1 µg/mL: dose 0.1 μg/ml; for activity at 0.4 µg/mL: dose 0.4 μg/ml
Description: as §1, §2

[3] = Antitumor activity and toxicity on ascites Sarcoma 180 in CD 1 mice; assay type: in vivo; conditions: mouse, in vivo, ip, read-out: % Toxic Deaths
Description: (§3) The antitumor activity of the compounds of the invention was tested on ascites Sarcoma 180.
(§4) Three month old CD 1 mice were used. Sarcoma 180 ascites cells were inoculated intraperitoneally (10^6 cells/mouse). For use in these tests, the compounds were dissolved in distilled water or in 5% ethyl alcohol in distilled water, then diluted with Ringers solution and administered i.p. 1 day after the tumor implant (10 ml./kg. of body weight).
(§5) The toxicity of the test compounds was evaluated by macroscopic autoptic examination mainly in terms of reduction in spleen size. The comparison of the effectiveness of the test compounds is based on the maximum increase in median survival time, as compared to untreated controls, over the dose range used. The number of Long Term Survivors (LTS) refers to tumor-free mice at the end of the experiment (60 days). Solid Sarcoma 180 was implanted subcutaneously by trocar in the flank of CD 1 mice according to standard methods. The mice were treated i.v. for 5 consecutive days, starting 1 day after the tumor implant. On the 11th day the tumor volume was measured by means of a caliper and evaluated according to the formula (a^2 × b)/2, a and b being the minimum and the maximum diameters respectively.

ascites Sarcoma 180 = test: as above; assay type: in vivo; conditions: for % LTS: 60 days; for LTS (Long Term Survivors after 60 days): survivors/total; for Toxic Deaths: deaths/total
Description: as §3, §4, §5

[4] = calculated on dose-effects lines, 3 days treatment
[5] = dose 0.0062 μg/ml, 3 days treatment, foci counted 5 days after infection, read-out: MSV-M No. of foci
[6] = dose 0.0250 μg/ml, 3 days treatment, foci counted 5 days after infection, read-out: MSV-M No. of foci
[7] = 3 days treatment, foci counted 5 days after infection, read-out: MSV-M No. of foci
[8] = calculated on dose-effects lines, uninfected MEF, 3 days treatment, read-out: MEF proliferation ID 50 (Inhibiting Dose 50%)
[9] = dose 0.0062 μg/ml, uninfected MEF, 3 days treatment
[10] = dose 0.0250 μg/ml, uninfected MEF, 3 days treatment
[11] = uninfected MEF, 3 days treatment
[12] = 0.2 mg./kg. i.p. 1 day after tumor implant
[13] = 1 mg./kg. i.p. 1 day after tumor implant
[14] = 5 mg./kg. i.p. 1 day after tumor implant
[15] = 12.5 mg./kg. i.p. 1 day after tumor implant
[16] = 25 mg./kg. i.p. 1 day after tumor implant
[17] = 50 mg./kg. i.p. 1 day after tumor implant

| Compound | IC50 [1, 4] [µg/mL] | activity at 0.0062 µg/mL [1, 5] [%] | activity at 0.025 µg/mL [1, 6] [%] | activity at 0.1 µg/mL [1, 7] [%] | activity at 0.4 µg/mL [1, 7] [%] | mortality ([3]; 0.2 mg./kg. i.p.) [%] | mortality ([3]; 1 mg./kg. i.p.) [%] | mortality ([3]; 5 mg./kg. i.p.) [%] | T/C (median survival time, % over untreated controls) (ascites Sarcoma 180; [12]) [%] | % LTS (ascites Sarcoma 180; [12]) [%] | LTS (Long Term Survivors after 60 days) (ascites Sarcoma 180; [12]) | Toxic Deaths (ascites Sarcoma 180; 0.2 mg./kg. i.p.) | T/C (median survival time, % over untreated controls) (ascites Sarcoma 180; [13]) [%] | % LTS (ascites Sarcoma 180; [13]) [%] | LTS (Long Term Survivors after 60 days) (ascites Sarcoma 180; [13]) | Toxic Deaths (ascites Sarcoma 180; 1 mg./kg. i.p.) | T/C (median survival time, % over untreated controls) (ascites Sarcoma 180; [14]) [%] | % LTS (ascites Sarcoma 180; [14]) [%] | LTS (Long Term Survivors after 60 days) (ascites Sarcoma 180; [14]) | Toxic Deaths (ascites Sarcoma 180; 5 mg./kg. i.p.) | other results |
| --- | --- | --- | --- | --- | --- | --- | --- | --- | --- | --- | --- | --- | --- | --- | --- | --- | --- | --- | --- | --- | --- |
| COc1cccc2c1C(=O)c1c(O)c3c(c(O)c1C2=O)C[C@@](O)(C(=O)CN1CCCCC1)C[C@@H]3O[C@H]1C[C@H](N)[C@H](O)[C@H](C)O1 [14-(N-piperidino)-daunomycin] | 0.08 (≈ 0.131 µM) | 100 | 89 | 42 | 0 | 0 | 0 | 0 | 103 | 0 | 0/10 | 0/10 | 100 | 0 | 0/10 | 0/10 | 140 | 20 | 2/10 | 0/10 | IC50 at 72 h [2, 8]: 0.1 µg/mL (≈ 0.164 µM); activity at 0.0062 µg/mL (Mouse Embryo Fibroblasts; [9]): 87%; activity at 0.025 µg/mL (Mouse Embryo Fibroblasts; [10]): 71%; activity at 0.1 µg/mL (Mouse Embryo Fibroblasts; [11]): 58%; activity at 0.4 µg/mL (Mouse Embryo Fibroblasts; [11]): 24%; mortality ([3]; 12.5 mg./kg. i.p.): 0%; mortality ([3]; 25 mg./kg. i.p.): 0%; mortality ([3]; 50 mg./kg. i.p.): 40%; T/C (median survival time, % over untreated controls) (ascites Sarcoma 180; [15]): 200%; % LTS (ascites Sarcoma 180; [15]): 20%; LTS (Long Term Survivors after 60 days) (ascites Sarcoma 180; [15]): 2/10; Toxic Deaths (ascites Sarcoma 180; 12.5 mg./kg. i.p.): 0/10; T/C (median survival time, % over untreated controls) (ascites Sarcoma 180; [16]): 218%; % LTS (ascites Sarcoma 180; [16]): 20%; LTS (Long Term Survivors after 60 days) (ascites Sarcoma 180; [16]): 2/10; Toxic Deaths (ascites Sarcoma 180; 25 mg./kg. i.p.): 0/10; T/C (median survival time, % over untreated controls) (ascites Sarcoma 180; [17]): 144%; % LTS (ascites Sarcoma 180; [17]): 20%; LTS (Long Term Survivors after 60 days) (ascites Sarcoma 180; [17]): 2/10; Toxic Deaths (ascites Sarcoma 180; 50 mg./kg. i.p.): 4/10 |
| COc1cccc2c1C(=O)c1c(O)c3c(c(O)c1C2=O)C[C@@](O)(C(C)=O)C[C@@H]3O[C@H]1C[C@H](N)[C@H](O)[C@H](C)O1 [Daunomycin] | – | – | – | – | – | 0 | 0 | 15 | 106 | 5 | 1/20 | 0/20 | 193 | 45 | 9/20 | 0/20 | 173 | 15 | 3/20 | 3/20 | activity at 0.0062 µg/mL ([1]; read-out: MSV-M No. of foci): 51%; activity at 0.0125 µg/mL ([1]; read-out: MSV-M No. of foci): 17%; activity at 0.025 µg/mL ([1]; read-out: MSV-M No. of foci): 0%; IC50 [1]: 0.006 µg/mL (≈ 0.0114 µM); IC50 at 72 h [2]: 0.0086 µg/mL (≈ 0.0163 µM); activity at 0.0062 µg/mL (Mouse Embryo Fibroblasts): 55%; activity at 0.0125 µg/mL (Mouse Embryo Fibroblasts): 45%; activity at 0.025 µg/mL (Mouse Embryo Fibroblasts): 22% |
| COc1cccc2c1C(=O)c1c(O)c3c(c(O)c1C2=O)C[C@@](O)(C(=O)CN1CCN(C)CC1)C[C@@H]3O[C@H]1C[C@H](N)[C@H](O)[C@H](C)O1 [14-[N-(N'-methyl)-piperazino]-daunomycin] | 0.011 (≈ 0.0176 µM) | 60 | 35 | 19 | 0 | 0 | 0 | 0 | 119 | 0 | 0/10 | 0/10 | 103 | 0 | 0/10 | 0/10 | 116 | 0 | 0/10 | 0/10 | IC50 at 72 h [2, 8]: 0.09 µg/mL (≈ 0.144 µM); activity at 0.0062 µg/mL (Mouse Embryo Fibroblasts; [9]): 67%; activity at 0.025 µg/mL (Mouse Embryo Fibroblasts; [10]): 64%; activity at 0.1 µg/mL (Mouse Embryo Fibroblasts; [11]): 56%; activity at 0.4 µg/mL (Mouse Embryo Fibroblasts; [11]): 23%; mortality ([3]; 12.5 mg./kg. i.p.): 10%; mortality ([3]; 25 mg./kg. i.p.): 0%; mortality ([3]; 50 mg./kg. i.p.): 50%; T/C (median survival time, % over untreated controls) (ascites Sarcoma 180; [15]): 167%; % LTS (ascites Sarcoma 180; [15]): 30%; LTS (Long Term Survivors after 60 days) (ascites Sarcoma 180; [15]): 3/10; Toxic Deaths (ascites Sarcoma 180; 12.5 mg./kg. i.p.): 1/10; T/C (median survival time, % over untreated controls) (ascites Sarcoma 180; [16]): 226%; % LTS (ascites Sarcoma 180; [16]): 30%; LTS (Long Term Survivors after 60 days) (ascites Sarcoma 180; [16]): 3/10; Toxic Deaths (ascites Sarcoma 180; 25 mg./kg. i.p.): 0/10; T/C (median survival time, % over untreated controls) (ascites Sarcoma 180; [17]): 130%; % LTS (ascites Sarcoma 180; [17]): 10%; LTS (Long Term Survivors after 60 days) (ascites Sarcoma 180; [17]): 1/10; Toxic Deaths (ascites Sarcoma 180; 50 mg./kg. i.p.): 5/10 |
